Consider 5 compounds from patent US20220249404A1 (Nanjing Ruiying Runze Biopharmaceutical Technology Co., Inc., priority 2019, published 2022).

Data set [1] deals with zebrafish. The data set is described as follows: melanin content / effective rate on melanogenesis in zebrafish (NaOH lysis method). The data set is classed as in vivo. The following applies: for efficacy of Cal (%): calculated using Formula 3; for efficacy of Flu (%): calculated using Formula 1.
Another data set concerns tyrosinase. The data set is described as follows: tyrosinase activity of zebrafish (L-DOPA oxidation method). The data set is classed as in vivo.
Another data set has as its system normal melanocytes. The following applies: 10^−9-10^−5 mol/L; cited from earlier work.
In data set [2] the test system is zebrafish. The data set can be described thus: survival rate of zebrafish (PTU35h embryos, drugs alone or in combination). The following applies: for effect on survival rate of zebrafish: used alone; for IC50: Danio rerio, 25 h, read-out: IC50 (survival rate of zebrafish).
Data set [3] relates to zebrafish. The settings on record: in vivo.
The subject of a further data set is normal mice. The settings on record: oral administration, 20 mg/kg; cited from earlier work.
A further data set relates to C57BL/6 mice. The settings on record: oral administration, 2.6 mg/kg, stress-induced; cited from earlier work.
The subject of another data set is B16F10 cells. The following applies: cited from earlier work.
The test system of data set [4] is normal human skin melanocytes. The following applies: cited from earlier work.
The conditions of data set [5]: long term oral administration, 20 mg/day; cited from earlier work.
[6] abbreviates: 0.005-1.28 μg/ml, compared with PTU35h treatment group.
Where [7] appears, read: 0.2 mM PTU35h treatment group compared with normal control group.

SMILES strings stand for the structures. Where two headings read alike, the source gives them in different places.

For `C=C1/C(=C\C=C2/CCC[C@]3(C)[C@@H]([C@H](C)/C=C/[C@@H](O)C4CC4)CC[C@@H]23)C[C@@H](O)C[C@@H]1O` [calcipotriol], the “efficacy of Cal (%)” value in the data set with zebrafish [1] (Cal 0.005 μg/ml) was 3.42%; in the data set on zebrafish [1] (Cal 0.02 μg/ml), 3.85%; in the data set on zebrafish [1] (Cal 0.08 μg/ml) it was 5.50%; in the data set with zebrafish [1] (Cal 0.32 μg/ml), 10.77%; with zebrafish [1] (Cal 1.28 μg/ml), 11.17%. The “effective rate (%) on melanogenesis in zebrafish” value (“effective rate (%)” below) in the data set on zebrafish [1] (used alone 0.005 μg/ml) is 4.296%; in the data set with zebrafish [1] (used alone 0.02 μg/ml), 5.509%; with zebrafish [1] (used alone 0.08 μg/ml), 6.773%; in the data set on zebrafish [1] (used alone 0.32 μg/ml) it was 10.214%; with zebrafish [1] (used alone 1.28 μg/ml), 11.197%. Moreover, the “tyrosinase activity of zebrafish” value with tyrosinase (setting [6]) was “no significant effect”. Besides, the “melanogenesis of normal melanocytes” value with normal melanocytes is on record as “can promote melanogenesis”. In addition, the “effect on survival rate of zebrafish” value in the data set on zebrafish [2] (5 μg/ml) was “significantly inhibited”. Moreover, the IC50 in the data set on zebrafish [2] came to 3.5 µg/mL.
Regarding `C=C1CC[C@H](O)C/C1=C/C=C1\CCC[C@]2(C)[C@@H]([C@H](C)CCCC(C)C)CC[C@@H]12` [VD3, vitamin D3], the “efficacy of VD3 (%)” value in the data set on zebrafish [1] (VD3 0.02 μg/ml, calculated using Formula 2) is recorded as 3.72%; in the data set with zebrafish [1] (VD3 0.08 μg/ml, calculated using Formula 2), 5.41%; in the data set with zebrafish [1] (VD3 0.32 μg/ml, calculated using Formula 2), 11.07%; in the data set with zebrafish [1] (VD3 1.28 μg/ml, calculated using Formula 2), 15.74%; in the data set with zebrafish [1] (zebrafish, in vivo) it was 3.28%. Moreover, the “effective rate (%)” value was 5.564% in the data set on zebrafish [1] (used alone 0.02 μg/ml); 7.337% in the data set on zebrafish [1] (used alone 0.08 μg/ml); 10.315% with zebrafish [1] (used alone 0.32 μg/ml); 15.775% with zebrafish [1] (used alone 1.28 μg/ml); 3.346% in the data set on zebrafish [1] (zebrafish, in vivo). The “melanin content in zebrafish” value in the data set on zebrafish [1] (zebrafish, in vivo) was “no significant difference”. The “tyrosinase activity of zebrafish” value in the data set on tyrosinase (setting [6]) was “no significant effect”. Besides, the “effect on survival rate of zebrafish” value in the data set with zebrafish [2] (5 μg/ml) is listed as “significantly inhibited”.
For the compound `C=C1/C(=C\C=C2/CCC[C@]3(C)[C@@H]([C@H](C)CC[C@@H](O)C(C)C)CC[C@@H]23)C[C@@H](O)C[C@@H]1O` [tacalcitol], in the data set on zebrafish [3], the “effect on survival rate of zebrafish” value is recorded as “significantly inhibited”. The IC50 with zebrafish [2] was 4 µg/mL.
Turning to `CNCCC(Oc1ccc(C(F)(F)F)cc1)c1ccccc1` (racemic) [fluoxetine], in the data set on zebrafish [1] (6.4-25.6 μg/ml, compared with PTU35h treatment group), the “melanin content in zebrafish” value was “increase the melanin content in zebrafish in a dose-dependent manner”. Further, the “effective rate (%)” value is 4.962% with zebrafish [1] (Flu alone 0.1 μg/ml); 4.5% in the data set on zebrafish [1] (Flu alone 0.1 μg/ml, listed as Flu); 6.564% in the data set with zebrafish [1] (Flu alone 0.4 μg/ml); 10.260% in the data set on zebrafish [1] (Flu alone 1.6 μg/ml); 10.26% with zebrafish [1] (Flu alone 1.6 μg/ml, listed as Flu); 25.804% in the data set with zebrafish [1] (Flu alone 6.4 μg/ml). Further, the “effective rate (%)” value in the data set on zebrafish [1] (Flu alone 25.6 μg/ml) was determined as 26.536%. Also, the “efficacy of Flu (%)” value in the data set with zebrafish [1] (listed as Flu 0.1 μg/ml) is on record as 3.151%; in the data set on zebrafish [1] (listed as Flu 0.4 μg/ml), 3.218%; with zebrafish [1] (listed as Flu 1.6 μg/ml) it was 3.486%; with zebrafish [1] (listed as Flu 6.4 μg/ml), 4.547%; with zebrafish [1] (listed as Flu 25.6 μg/ml), 8.629%. In addition, the “tyrosinase activity of zebrafish” value with tyrosinase (1.6-25.6 μg/ml, compared with PTU35h treatment group) is “increase the tyrosinase activity of zebrafish in a dose-dependent manner”. The skin coloring result in the data set on normal mice is “can promote skin coloring”. In addition, in the data set on C57BL/6 mice, the “skin discoloration of unhaired back” value was “can improve skin discoloration”. For the same compound, the “synthesis (melanin) of B16F10 cells” value in the data set on B16F10 cells was “can promote”. For the same compound, the “melanin of normal human skin melanocytes” value in [4] was “can promote”. Also, the side effects result in data set [5] was “may cause side effects, such as insomnia, lethargy, suicide, neurological disorders”. Moreover, in the data set on zebrafish [2] (100 μg/ml), the “effect on survival rate of zebrafish” value is “significantly inhibited”.
Turning to `NC(=S)Nc1ccccc1` [PTU, 1-phenyl-2-thiourea], in the data set on zebrafish [1] (setting [7]), the “melanin content in zebrafish” value is “decreased significantly”. The “tyrosinase activity of zebrafish” value with tyrosinase (setting [7]) is on record as “decreased significantly”.

As usually defined, the IC50 is the concentration that inhibits the measured activity by half.
